Data on two compounds can be found in patent US9487554B2, “Estra-1,3,5(10),16-tetraene-3-carboxamide derivatives, processes for their preparation, pharmaceutical preparations comprising them and their use for preparing medicaments” (BAYER INTELLECTUAL PROPERTY GmbH, priority 2011, dated 2016).

A short description of series [1]: Thermodynamic solubility in aqueous buffer pH 6.5 (shake-flask method). The series is classed as physicochemical. As to conditions: thermodynamic from solid. How it is done: Determination of the Thermodynamic Solubility in Aqueous Buffer pH 6.5 (Shake-Flask Method)
The thermodynamic solubility was determined according to the shake-flask method [literature: Edward H. Kerns and Li Di (2008) Solubility Methods in: Drug-like Properties: Concepts, Structure Design and Methods, p 276-286. Burlington, Mass., Academic Press].
Here, a saturated solution of the active compound in buffer pH 6.5 was prepared and stirred for 24 h to ensure that an equilibrium between the solid and the substance in solution had formed. The solution was then centrifuged, and the concentration of the solution obtained was quantified with the aid of a calibration line.
For the sample, 2 mg of solid substance were weighed out accurately into a 4 ml glass bottle. 1 ml of phosphate buffer pH 6.5 was added. This solution was stirred on a stirrer at room temperature for 24 h. The solution was then centrifuged. To prepare the comparison for the calibration, 2 mg of solid substance were weighed out accurately and dissolved in 30 ml of acetonitrile. After a short ultrasound treatment, the solution was diluted with water to 50 ml.
Sample and comparison were quantified using HPLC with UV detection. […]
The areas of the sample and comparison injections and the calculation of the solubility (in mg/l) were determined using the HPLC software (Waters Empower 2 FR).

The target in another series is recombinant human AKR1C3 (Homo sapiens (Human), UniProt P42330). Put plainly: AKR1C3 enzyme inhibition assay (Coumberone to Coumberol fluorescence). The series is classed as biochemical. As to conditions: individual experimental determinations. The method, then:
The AKR1C3-inhibitory activity of the substances of the present invention was measured in the AKR1C3 assay described in the paragraphs below.
Essentially, the enzyme activity is measured by quantification of the Coumberol from Coumberone (Halim, M., Yee, D. J., and Sames, D., J. AM. CHEM. SOC. 130, 14123-14128 (2008) and Yee, D. J., Balsanek, V., Bauman, D. R., Penning, T. M., and Sames, D., Proc. Natl. Acad. Sci. USA 103, 13304-13309 (2006)). In this test, the increase of the highly fluorescent Coumberol by NADPH—(nicotinamide adenine dinucleotide phosphate)-dependent reduction of the non-fluorescent Coumberone by AKR1C3 can be determined.
The enzyme used was recombinant human AKR1C3 (Aldo-keto reductase family 1 member C3) (GenBank Accession No. NM_003739). This was expressed in E. coli as GST (glutathione S transferase) fusion protein and purified by glutathione Sepharose affinity chromatography. The GST was removed by digestion with thrombin and subsequent size exclusion chromatography (Dufort, I., Rheault, P., Huang, X F., Soucy, P., and Luu-The, V., Endocrinology 140, 568-574 (1999)).
For the assay, 50 nl of a 100-fold concentrated solution of the test substance in DMSO were pipetted into a black low-volume 384-well microtiter plate (Greiner Bio-One, Frickenhausen, Germany), 2.0 μl of a solution of AKR1C3 in assay buffer [50 mM potassium phosphate buffer pH 7, 1 mM DTT, 0.0022% (w/v) Pluronic F-127, 0.01% BSA (w/v) and protease inhibitor cocktail (Complete, EDTA-free Protease Inhibitor Cocktail from Roche)] were added and the mixture was incubated for 15 min to allow pre-binding of the substances to the enzyme prior to the enzyme reaction. The enzyme reaction was then started by addition of 3 μl of a solution of NADPH (16.7 μM→final concentration in 5 μl of assay volume is 10 μM) and Coumberone (0.5 μM→final concentration in 5 μl of assay volume is 0.3 μM) in assay buffer, and the resulting mixture was incubated at 22° C. for the reaction time of 90 min. The concentration of the AKR1C3 was adapted to the respective activity of the enzyme preparation and adjusted such that the assay was carried out in the linear range. Typical concentrations were in the region of 1 nM. The reaction was stopped by addition of 5 μl of a stop solution consisting of the inhibitor EM-1404 [F. Labrie et al. U.S. Pat. No. 6,541,463, 2003] (2 μM→final concentration in […] is 1 μM). The fluorescence of the Coumberole was then measured at 520 nm (excitation at 380 nm) using a suitable measuring instrument (Pherastar from BMG Labtechnologies). The intensity of the fluorescence was used as a measure of the amount of Coumberole formed and thus of the enzyme activity of AKR1C3. The data were normalized (enzyme reaction without inhibitor=0% inhibition; all other assay components, but no enzyme=100% inhibition).

In the next series the target is Human CYP17A1 (Homo sapiens (Human), UniProt P05093). Put plainly: Inhibition of CYP17A1 (recombinant enzyme, progesterone hydroxylation, HPLC radio detection). Type of series: biochemical. The method, then: The inhibition of CYP17A1 by the test compounds was evaluated using a recombinant enzyme. Human CYP17A1 was expressed in E. coli (Ehmer, P. B. et al.; J. Steroid Biochem. Mol. Biol., 75, 57-63 (2000)). The microsomal fraction and 140 μL of phosphate buffer (50 mM Na phosphate, 1 mM MgCl2, 0.1 mM EDTA, 0.1 mM dithiothreitol, pH 7.4) were preincubated separately with a mixture of progesterone (24.95 μM) and ^3H-progesterone (0.05 μM, 101.3 Ci/mmol), […] of an NADPH regeneration system (in phosphate buffer with 10 mM NADP+, 100 mM glucose 6-phosphate and 2.5 U of glucose 6-phosphate dehydrogenase) and the appropriate test substances (in 5 μl of DMSO) at 37° C. for 5 minutes. The reaction was started by addition of the enzyme and, after 30 minutes of incubation at 37° C., stopped by addition of 50 μl of 1N hydrochloric acid.
The steroids were extracted with ethyl acetate. After evaporation of the organic phase, the steroids were taken up in acetonitrile. 16α-Hydroxyprogesterone, 17α-hydroxyprogesterone and progesterone were separated using acetonitrile/water (45:55) as mobile phase on a C18 reverse-phase chromatography column (Nucleodur C18 Gravity, 3 μm, Macherey-Nagel, Düren, Germany) on an HPLC system (Agilent 1100 Series, Agilent Technologies, Waldbronn, Germany). Detection and quantification of the steroids was carried out using a radio flow detector (Berthold Technologies, Bad Wildbad, Germany). The inhibition was calculated using the formula below: […]
Each value was calculated from at least three independent experiments. The final IC50 value was calculated as the mean of 3 or 4 independent IC50 values.

Converted amounts (≈) assume the structure as drawn. “And” between values parts separate entries of the source, which are not always exact repeats. Equal entries are not always repeated. Where two headings read alike, the source gives them in different places.

Sequence of recombinant human AKR1C3 (P42330 whole entry): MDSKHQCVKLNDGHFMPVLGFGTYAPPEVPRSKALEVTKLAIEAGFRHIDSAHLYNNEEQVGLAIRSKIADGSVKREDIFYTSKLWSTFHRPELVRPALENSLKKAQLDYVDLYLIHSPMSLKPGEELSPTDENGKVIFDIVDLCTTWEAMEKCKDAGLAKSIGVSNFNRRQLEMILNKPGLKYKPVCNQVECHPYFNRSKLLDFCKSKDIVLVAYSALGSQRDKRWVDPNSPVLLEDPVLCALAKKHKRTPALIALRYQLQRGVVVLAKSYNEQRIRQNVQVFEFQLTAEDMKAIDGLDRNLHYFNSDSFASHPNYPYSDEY
Sequence of Human CYP17A1 (P05093 whole entry): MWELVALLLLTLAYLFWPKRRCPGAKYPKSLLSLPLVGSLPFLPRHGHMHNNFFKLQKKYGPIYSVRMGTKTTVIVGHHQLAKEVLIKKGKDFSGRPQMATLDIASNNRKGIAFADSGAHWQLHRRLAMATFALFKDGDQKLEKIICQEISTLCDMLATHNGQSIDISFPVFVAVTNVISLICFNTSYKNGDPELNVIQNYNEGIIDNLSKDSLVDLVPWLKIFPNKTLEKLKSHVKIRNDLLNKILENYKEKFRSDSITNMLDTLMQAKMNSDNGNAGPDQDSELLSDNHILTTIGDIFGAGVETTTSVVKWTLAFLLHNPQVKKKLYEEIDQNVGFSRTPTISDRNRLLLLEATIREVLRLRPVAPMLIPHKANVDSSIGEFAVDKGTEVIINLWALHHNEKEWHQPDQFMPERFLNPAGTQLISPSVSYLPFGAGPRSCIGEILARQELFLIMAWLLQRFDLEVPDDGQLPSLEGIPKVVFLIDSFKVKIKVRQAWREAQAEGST

The solubility is the dissolved amount per volume that the medium holds. As a reminder, the IC50 is the concentration needed to halve the response being measured. Broadly, the % Inhibition is the drop in the measured response relative to a control, in per cent. `CN(CCC(=O)O)C(=O)c1ccc2c(c1)CC[C@@H]1[C@@H]2CC[C@]2(C)C(c3cncc(F)c3)=CC[C@@H]12` [Example 2, N-{[17-(5-Fluoropyridin-3-yl)estra-1,3,5(10),16-tetraen-3-yl]carbonyl}-N-methyl-β-alanine]: the concentration in solution in series [1] (pH 6.5, aqueous buffer) (solubility at 24 h) came to 354 µg/mL (≈ 765 µM). In addition, the IC50 is 1.3 nM and 1.4 nM at recombinant human AKR1C3; around 200000 nM at Human CYP17A1 (human CYP17A1 expressed in E. coli, mean of 3 or 4 independent IC50 values, read-out: IC50 ± SD CYP17). The “% Inhibition at a concentration of 200 μM substance” value on Human CYP17A1 (human CYP17, 200 μM substance) is 49%.
`CC1(C)CC[C@@]2(CC[C@H]3[C@@H]4CCc5cc(C(N)=O)ccc5[C@H]4CC[C@@]32C)OC1=O` [EM-1404, reference compound]: in series [1] (aqueous buffer, phosphate buffer pH 6.5, room temperature, 24 h, shake-flask, read-out: solubility), the solubility at 24 h is 0.1 µg/mL (≈ 0.253 µM).
